Results taken from article PMC10328330 (PLOS ONE, 2023).

Tests used:
[1] = tested on: mice; design: method as in PMID 23791825; conditions: cited from earlier work
[2] = tested on: T. gondii (ME49 strain); experiment: Efficacy in mice chronically infected with T. gondii (brain cysts, qPCR parasite burden); type: in vivo, Toxoplasma gondii; conditions: C57BL/6 mice chronically infected with ME49
Protocol: Chronic infection in Male C57/BL/6 mice (4 weeks-old) was obtained by intraperitoneal injection of brain tissue cysts (ME49 strain) as previously described. The cysts were obtained by directly macerating the brain tissue of previously chronically infected mice in 5 mL of saline solution. The resulting mixture was then subjected to a counting procedure using a Neubauer chamber under a microscope to determine the concentration of the cysts. To prepare the cysts for injection, they were further diluted in saline solution to achieve the desired concentration of 10 cysts per animal. Subsequently, the mice in the experiment were infected with these freshly obtained brain cysts via intraperitoneal injection. The animals were considered chronically infected 40 days post-infection, according to the protocol described by. […] Additionally, the presence of brain cysts, known to be responsible for the observed symptoms, further confirmed the chronic infection status.
Forty days after infection, chronically infected mice were randomly assigned into experimental groups (n = 4 per group). […] On day 51 post-infection, all animals were euthanized, and their brains were collected for analyses. The brains were used for microscopic counting of cysts, measurement of cysts area, RNA extraction, and quantification. For microscopic counting, 25 μL of macerated organ was utilized, while 200 μL was used for RNA extraction. Cysts area was measured using ImageJ software, available at https://imagej.nih.gov/ij/.
We performed a serial dilution of cultured tachyzoites of T. gondii (RH strain), ranging from 5×10^6 to 7.8×10^4 forms per mL. DNA samples were extracted from each point of the serial dilution (in duplicate samples), and real-time PCR was performed. The resulting data were used to plot the cycle threshold value (CT) against varying amounts of parasites, ultimately generating a standard curve. […]
Each DNA and cDNA samples were analysed by quantitative real-time PCR using the set of primers Rep529, which amplified a T. gondii repetitive DNA fragment. […]

Which LD50 [1] does the source give for `C=CCNc1nc(NCC=C)nc(N2CCN(C(c3ccc(F)cc3)c3ccc(F)cc3)CC2)n1` [almitrine bismesylate] here?
The LD50 was greater than 200 mg/kg.

And the “parasite burden in the brains (real-time PCR)” value ([2]; 25 mg/kg/day oral for 10 days, RNA of living parasites by qPCR, vs vehicle control group)?
Its value is “statistically significant (p < 0.001) reduction”.

And the cysts area ([2]; 12.5 and 25 mg/kg/day oral for 10 days from day 40 post-infection, microscopy of brain macerates, ImageJ, vs vehicle)?
The cysts area was “significant reduction (p < 0.05)”.

What about the “number of brain cysts” value ([2]; 12.5 and 25 mg/kg/day oral for 10 days from day 40 post-infection, microscopy of brain macerates, vs vehicle) of the same compound?
Its value is “significant reduction (p < 0.05)”.
